Series [1] has as its system breast adenocarcinoma (MCF7) cells. In words: Antiproliferative MTT assay, MCF-7. The class given is cell-based, human. Conditions: for IC50: Homo sapiens, MCF7, 72 h incubation, MTT, mean ± SD; for SI (MCF-7): SI = [IC50 HFF]/[IC50 MCF-7]. The essentials: (§1)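 3000 cells/well (tumour) or 5000 (fibroblasts), DMEM/MEM + 10% FBS, 37 °C. Cpd 0.01–100 µM, 72 h. MTT; IC50 via linear regression; n = 4 × 2 expts.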
In general terms: Formazan colour is commonly taken as a measure of viable cells.

Series [2] has as its system pancreatic ductal adenocarcinoma (CFPAC-1) cells. In words: Antiproliferative MTT assay, CFPAC-1. Conditions: for IC50: Homo sapiens, CFPAC-1, 72 h, 72 h incubation, MTT, mean ± SD; for SI (CFPAC-1): SI = [IC50 HFF]/[IC50 CFPAC-1]. In kind it is cell-based, human. In a few lines:
as §1

Series [3] has as its system colorectal carcinoma (HT-29) cells. In words: Antiproliferative MTT assay, HT-29. In kind it is cell-based, human. Conditions: for IC50: Homo sapiens, HT-29, 72 h, 72 h incubation, MTT, mean ± SD; for SI (HT-29): SI = [IC50 HFF]/[IC50 HT-29]. The essentials:
as §1

In series [4] the test system is hepatocellular carcinoma (HepG2) cells. Nature of the series: Antiproliferative MTT assay, HepG2. In kind it is cell-based, human. The settings on record: for IC50: Homo sapiens, HepG2, 72 h, 72 h incubation, MTT, mean ± SD; for SI (HepG2): SI = [IC50 HFF]/[IC50 HepG2]. The essentials:
as §1

Series [5] relates to normal skin fibroblasts (HFF-1). Nature of the series: Cytotoxicity MTT assay, normal skin fibroblasts. Conditions: Homo sapiens, HFF-1, 72 h, 72 h incubation, mean ± SD. In kind it is cell-based, human. In a few lines:
as §1

The test system of series [6] is MDCKII-MDR1 cells (P-glycoprotein). Nature of the series: MDCKII-MDR1 permeability assay. The class given is in vitro ADME, canine cells with over-expressed human MDR1 gene. Conditions: permeability class. Here is the method:
(§2) MDCKII-hMDR1 cells were obtained from Solvo Biotechnology, Hungary. DMEM, fetal bovine serum, Glutamax-100, Antibiotic/Antimycotic, DMSO, Dulbecco’s phosphate-buffered saline, and MEM Non-essential amino acids were purchased from Sigma (St. Louis, MO, USA). Bi-directional permeability and P-glycoprotein substrate assessments were carried out in Madin-Darby canine epithelial cells with the over-expressed human MDR1 gene (MDCKII-MDR1), coding for P-glycoprotein. Experimental procedures, as well as cell culture conditions, were the same as previously described. Briefly, compounds (10 µM, 1% DMSO v/v) in duplicate were incubated at 37 °C for 60 min with cell monolayer on 24-well Millicell inserts (Millipore, Burlington, MA, USA) with and without the P-glycoprotein inhibitor Elacridar (2 µM, International Laboratory, San Francisco, CA, USA). The inhibition of P-glycoprotein was verified by amprenavir (Moravek Biochemicals Inc, Brea, CA, USA) and monolayer integrity using Lucifer yellow (Sigma, St. Louis, MO, USA). LC-MS/MS measured compound concentrations and Lucifer yellow was measured on an Infinite F500 (Tecan, Männedorf, CH, Switzerland) using excitation of 485 nm and emission of 530 nm.
(§3) All samples were quantified using tandem mass spectrometry coupled to liquid chromatography. Samples were analyzed on a Sciex API4000 Triple Quadrupole Mass Spectrometer (Sciex, Division of MDS Inc., Toronto, Canada) coupled to a Shimadzu Nexera X2 UHPLC frontend (Kyoto, Japan). Samples were injected onto a UHPLC column (HALO2 C18, 2.1 × 20 mm, 2 µm or Luna Omega 1.6 µm Polar C18 100A, 30 × 2.1 mm) and eluted with a gradient at 50 °C. The mobile phase was composed of acetonitrile/water mixture (9/1, with 0.1% formic acid) and 0.1% formic acid in deionized water. The flow rate was 0.7 mL/min under gradient conditions, leading to a total run time of 1.5–2 min. A positive ion mode with turbo spray, an ion source temperature of 550 °C, and a dwell time of 150 ms were utilized for mass spectrometric detection. Quantitation was performed using multiple reaction monitoring (MRM) at the specific transitions for each compound.

Series [7] concerns P-glycoprotein (human MDR1). In words: MDCKII-MDR1 permeability assay. Conditions: dog, MDCK-MDR1; for Papp A→B at 60 min, 10 µM / Papp B→A at 60 min, 10 µM: 37 °C; for efflux ratio at 60 min, 10 µM: <2 no efflux, >2 active efflux. In kind it is in vitro ADME, canine cells with over-expressed human MDR1 gene. The protocol: as §2, §3
Series [8] can be described thus: Metabolic stability in mouse liver microsomes. The class given is in vitro ADME. The settings on record: for Clearance Class.: mouse liver microsomes; for Clearance Values (CL): predicted in vivo hepatic clearance from mouse liver microsome t1/2, 1 µM compound.
Excerpt: Mouse liver microsomes were obtained from Corning Life Sciences (Corning, NY, USA). DMSO, nicotinamide adenine dinucleotide phosphate (NADP), glucose-6-phosphate, glucose-6-phosphate dehydrogenase, magnesium chloride, propranolol, caffeine, diclofenac, and phosphate-buffered saline (PBS) were purchased from Sigma (St. Louis, MO, USA). Acetonitrile (ACN) and methanol (MeOH) were obtained from Merck (Darmstadt, Germany). Testosterone was purchased from Steraloids (Newport, RI, USA). Metabolic stability was assessed in mouse liver microsomes. Compounds (final concentration of 1 µM, 0.03% DMSO v/v) were incubated in duplicate in phosphate buffer (50 mM, pH 7.4) at 37 °C together with mouse liver microsomes in the absence and presence of the NADPH cofactor (0.5 mM nicotinamide adenine dinucleotide phosphate, 5 mM glucose-6-phosphate, 1.5 U/mL glucose-6-phosphate dehydrogenase, and 0.5 mM magnesium chloride). Incubation and sampling were performed on a Freedom EVO 200 (Tecan, Männedorf, CH, Switzerland) at […], 10, 20, 30, 45, and 60 min. The reaction was quenched using 3 volumes of a mixture of ACN/MeOH (2:1) containing internal standard (diclofenac), centrifuged, and the supernatants were analyzed using LC-MS/MS. The metabolic activity of the microsomes was verified via simultaneous analysis of several controls including testosterone, propranolol, and caffeine. The in vitro half-life (t1/2) was calculated using GraphPad Prism (v9.0 software) non-linear regression of % of parent compound remaining versus time. In vitro clearance, expressed as µL/min/mg, was estimated from the in vitro half-life (t1/2) and normalized for the protein amount in the incubation mixture, assuming 52.5 mg of protein per gram of liver and using constant values for mouse liver weight/body weight [87.5 g/kg] and mouse liver blood flow (LBF) [131 mL/min/kg].
as §3

In general, IC50 refers to the concentration at which inhibition is half-maximal. As usually defined, the Papp A→B is the apparent permeability from the apical to the basolateral side of a cell layer. In general, Papp B→A refers to the apparent permeability from the basolateral to the apical side of a cell layer. By efflux ratio is commonly meant a quotient of directional permeabilities that is used to spot active efflux.

In turn, `OC(Cn1cc(Cn2cnc3ccccc32)nn1)c1ccc(Br)cc1` (stereo not shown) [Compound 34b, 1-((1-(2-Hydroxy-2-(4-bromophenyl)ethyl)-1H-1,2,3-triazol-4-yl)methyl)-1H-benzimidazole] registered a half-maximal inhibitory concentration (IC50) in series [1] of 39 ± 10.1 µM. Also, in series [2], half-maximal inhibition (IC50) was put at 8 ± 3.2 µM and the “SI (CFPAC-1)” value was determined as 4.0. Also, the half-inhibitory concentration (IC50) in series [3] was 70 ± 14.5 µM. Also, the concentration for half-maximal inhibition (IC50) in series [4] was determined as 64 ± 19.5 µM. Also, the half-inhibitory concentration (IC50) in series [5] came out at 32 ± 14.1 µM. The Permeability entry in series [6] was “MODERATE”. Also, in series [7], the Papp A→B at 60 min, 10 µM came to 4.3 ×10⁻⁶ cm/s; the Papp B→A at 60 min, 10 µM was found to be 69.4 ×10⁻⁶ cm/s; the efflux ratio at 60 min, 10 µM came out at 17.2. Besides, in series [8], the “Clearance Class.” value is “MODERATE (30–70% moderate)” and the “Clearance Values (CL)” value is 48%.
As for `OCC(c1ccc(Br)cc1)n1cc(Cn2ccc3c(Cl)ncnc32)nn1` (stereo not shown) [Compound 44a, 4-Chloro-7-((1-(2-hydroxy-1-(4-bromophenyl)ethyl)-1H-1,2,3-triazol-4-yl)methyl)-7H-pyrrolo[2,3-d]pyrimidine], in series [1], the midpoint of inhibition, the IC50, lay at 79 ± 17.6 µM and the “SI (MCF-7)” value was determined as 1.0. In series [2], inhibition was half-maximal at 69 ± 2 µM (IC50) and the “SI (CFPAC-1)” value is listed as 1.1. Further, the concentration for half-maximal inhibition (IC50) in series [3] turned out to be 87 ± 9.9 µM. Besides, the IC50 in series [4] is 83 ± 28.3 µM. In series [5], the half-maximal inhibitory concentration (IC50) turned out to be 79 ± 17.6 µM. In series [6], the Permeability result is given as “HIGH”. For the same compound, in series [7], the Papp A→B at 60 min, 10 µM was found to be 10.9 ×10⁻⁶ cm/s; the Papp B→A at 60 min, 10 µM stood at 67.4 ×10⁻⁶ cm/s; the efflux ratio at 60 min, 10 µM is 6.2. In series [8], the “Clearance Class.” value was “MODERATE (30–70% moderate)” and the “Clearance Values (CL)” value was 56%.
Consider `OC(Cn1cc(Cn2ccc3c(Cl)ncnc32)nn1)c1ccc(Br)cc1` (stereo not shown) [Compound 44b, 4-Chloro-7-((1-(2-hydroxy-2-(4-bromophenyl)ethyl)-1H-1,2,3-triazol-4-yl)methyl)-7H-pyrrolo[2,3-d]pyrimidine], for which, in series [1], the 50% inhibitory concentration (IC50) is 25 ± 6.4 µM and the “SI (MCF-7)” value stood at 1.1. In addition, in series [2], half-maximal inhibition (IC50) was put at 15 ± 0.2 µM and the “SI (CFPAC-1)” value is on record as 1.8. The compound also yielded an IC50 in series [3] of 30 ± 0.7 µM. Moreover, the IC50 in series [4] was determined as 32 ± 3.2 µM. Moreover, the IC50 in series [5] was found to be 27 ± 11.9 µM. In addition, the Permeability entry in series [6] was “highest permeability and HIGH”. Besides, in series [7], the Papp A→B at 60 min, 10 µM was determined as 25.3 ×10⁻⁶ cm/s; the basolateral-to-apical permeability (Papp B→A) at 60 min, 10 µM came out at 62.7 ×10⁻⁶ cm/s; the efflux ratio at 60 min, 10 µM was found to be 2.5. For the same compound, in series [8], the “Clearance Values (CL)” value is 84%.
As to `OC(Cn1cc(Cn2ccc3c(Cl)ncnc32)nn1)c1ccc(C(F)(F)F)cc1` (stereo not shown) [Compound 45b, 4-Chloro-7-((1-(2-hydroxy-2-(4-(trifluoromethyl)phenyl)ethyl)-1H-1,2,3-triazol-4-yl)methyl)-7H-pyrrolo[2,3-d]pyrimidine], in series [1], half-maximal inhibition (IC50) was put at 21 ± 1.6 µM and the “SI (MCF-7)” value stood at 0.6. In addition, in series [2], half-maximal inhibition (IC50) required 13 ± 2.2 µM and the “SI (CFPAC-1)” value worked out at 0.9. The same compound came in with an IC50 in series [3] of 19 ± 7.5 µM. For the same compound, the half-maximal inhibitory concentration (IC50) in series [4] was determined as 32 ± 16.1 µM. This compound displayed an IC50 in series [5] of 12 ± 3.1 µM. The Permeability entry in series [6] was “highest permeability and HIGH”. In series [7], the apparent permeability from apical to basolateral (Papp A→B) at 60 min, 10 µM worked out at 26.5 ×10⁻⁶ cm/s; the Papp B→A at 60 min, 10 µM came to 90.7 ×10⁻⁶ cm/s; the efflux ratio at 60 min, 10 µM came out at 3.4. In addition, the “Clearance Values (CL)” value in series [8] is 90%.
The compound `O[C@@H](Cn1cc(Cn2cnc3c(Cl)ncnc32)nn1)c1ccc(C(F)(F)F)cc1` [Compound (R)-40b, (R)-6-Chloro-9-((1-(2-hydroxy-2-(4-(trifluoromethyl)phenyl)ethyl)-1H-1,2,3-triazol-4-yl)methyl)-9H-purine] registered an IC50 in series [1] of 36 ± 23.1 µM. In addition, the IC50 in series [2] stood at 16 ± 2.6 µM. In series [3], half-maximal inhibition (IC50) required 6 ± 0.6 µM and the “SI (HT-29)” value is 1.0. Also, in series [4], half-maximal inhibition (IC50) required 8 ± 0.6 µM and the “SI (HepG2)” value is given as 0.7. This compound also yielded an IC50 in series [5] of 6 ± 4.8 µM. The Permeability result in series [6] is on record as “MODERATE”. For the same compound, in series [7], the Papp A→B at 60 min, 10 µM stood at 2.2 ×10⁻⁶ cm/s; the Papp B→A at 60 min, 10 µM turned out to be 45.2 ×10⁻⁶ cm/s; the efflux ratio at 60 min, 10 µM was 21. Further, the “Clearance Class.” value in series [8] is “LOW (<30% low)”.
Consider `O[C@H](Cn1cc(Cn2cnc3c(Cl)ncnc32)nn1)c1ccc(C(F)(F)F)cc1` [Compound (S)-40b, (S)-6-Chloro-9-((1-(2-hydroxy-2-(4-(trifluoromethyl)phenyl)ethyl)-1H-1,2,3-triazol-4-yl)methyl)-9H-purine], for which the 50% inhibitory concentration (IC50) in series [1] turned out to be 10 ± 0.4 µM. For the same compound, the half-maximal inhibitory concentration (IC50) in series [2] came to 19 ± 2.4 µM. Also, in series [3], the IC50 amounted to 5 ± 0.1 µM and the “SI (HT-29)” value is listed as 2.4. In addition, in series [4], the half-maximal inhibitory concentration (IC50) is 7 ± 1.5 µM and the “SI (HepG2)” value is 1.7. Half-maximal inhibition in series [5] (IC50) was put at 12 ± 3.4 µM. The Permeability result in series [6] is listed as “MODERATE”. Further, in series [7], the apical-to-basolateral permeability (Papp A→B) at 60 min, 10 µM was determined as 2.2 ×10⁻⁶ cm/s; the apparent permeability from basolateral to apical (Papp B→A) at 60 min, 10 µM is 42.9 ×10⁻⁶ cm/s; the efflux ratio at 60 min, 10 µM was determined as 19.5. Further, the “Clearance Class.” value in series [8] was “LOW (<30% low)”.

The record behind these values is publication PMC11940194, “Synthesis, Antiproliferative Activity, and ADME Profiling of Novel Racemic and Optically Pure Aryl-Substituted Purines and Purine Bioisosteres” (Biomolecules, 2025).
